Among the data in patent US20240199587A1, “HETEROCYCLIC COMPOUNDS” (Hoffmann-La Roche Inc., priority 2021, published 2024) are IC50 values, retold here.

This assay has as its target T1, MAGL (Homo sapiens, UniProt Q99685).
T1 sequence (Q99685 1-303): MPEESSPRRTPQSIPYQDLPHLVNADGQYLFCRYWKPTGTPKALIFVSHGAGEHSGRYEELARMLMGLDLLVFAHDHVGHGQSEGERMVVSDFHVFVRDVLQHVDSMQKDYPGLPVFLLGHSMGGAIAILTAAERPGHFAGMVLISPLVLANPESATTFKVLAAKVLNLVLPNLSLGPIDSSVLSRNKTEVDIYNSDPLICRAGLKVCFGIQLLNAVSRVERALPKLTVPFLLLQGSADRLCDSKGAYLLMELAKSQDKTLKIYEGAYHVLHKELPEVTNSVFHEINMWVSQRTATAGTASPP
Kind of assay: 2-AG assay (MAGL inhibitory activity, hydrolysis of 2-arachidonoylglycerol to arachidonic acid followed by mass spectrometry). The class given is biochemical. Conditions: 8 μM 2-arachidonoylglycerol, 15 min pre-incubation, 30 min incubation at RT, RapidFire MS readout. An outline of the steps:
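Arachidonic acid released from 8 μM 2-arachidonoylglycerol was quantified by online SPE triple-quadrupole MS (negative ESI, 303.1→259.1), normalised to d8-arachidonic acid internal standard. Reaction ran 30 min at RT after 15 min RT compound pre-incubation with […] MAGL in TRIS/EDTA/Tween-20 buffer, 2.5% DMSO.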
As usually defined, the IC50 is the concentration that gives 50% inhibition. The compound `O=C(N1CC(OCc2ccc(Cl)cc2F)C1)N1CC2(CC(n3cnc(C4CC4)c3)C2)C1` [Example 108, [3-[(4-chloro-2-fluoro-phenyl)methoxy]azetidin-1-yl]-[6-(4-cyclopropylimidazol-1-yl)-2-azaspiro[3.3]heptan-2-yl]methanone] returned an IC50 of 25 nM. Then `O=C(N1CC(OCc2ccc(F)cc2Cl)C1)N1CC2(CC(n3cnc(C4CC4)c3)C2)C1` [Example 109, [3-[(2-chloro-4-fluoro-phenyl)methoxy]azetidin-1-yl]-[6-(4-cyclopropylimidazol-1-yl)-2-azaspiro[3.3]heptan-2-yl]methanone], with 63.5 nM. For the compound `O=C(N1CC(OCc2ccc(F)cc2F)C1)N1CC2(CC(n3cnc(C4CC4)c3)C2)C1` [Example 110, [6-(4-cyclopropylimidazol-1-yl)-2-azaspiro[3.3]heptan-2-yl]-[3-[(2,4-difluorophenyl)methoxy]azetidin-1-yl]methanone], the midpoint of inhibition, the IC50, lay at 65.8 nM.

`N#Cc1ccc(OC2CC3(C2)CN(C(=O)N2CC4(CC(n5cnc(C6CC6)n5)C4)C2)C3)c(F)c1` [Example 111, 4-[[2-[6-(3-cyclopropyl-1,2,4-triazol-1-yl)-2-azaspiro[3.3]heptane-2-carbonyl]-2-azaspiro[3.3]heptan-6-yl]oxy]-3-fluoro-benzonitrile] came in with an IC50 of 4.3 nM. Then `O=C(N1C[C@H]2C[C@H](Oc3ccc(OC(F)F)cc3F)C[C@H]2C1)N1CC2(CC(n3cnc(C4CC4)n3)C2)C1` [Example 112, [6-(3-cyclopropyl-1,2,4-triazol-1-yl)-2-azaspiro[3.3]heptan-2-yl]−[rac-(3aS,6aR)-5-[4-(difluoromethoxy)-2-fluoro-phenoxy]-3,3a,4,5,6,6a-hexahydro-1H-cyclopenta[c]pyrrol-2-yl]methanone], with 6 nM; and `O=C(N1C[C@H]2C[C@H](Oc3ccc(C(F)(F)F)cc3)C[C@H]2C1)N1CC2(CC(n3cnc(C4CC4)n3)C2)C1` [Example 113, [6-(3-cyclopropyl-1,2,4-triazol-1-yl)-2-azaspiro[3.3]heptan-2-yl]-[rac-(3aS,6aR)-5-[4-(trifluoromethyl)phenoxy]-3,3a,4,5,6,6a-hexahydro-1H-cyclopenta[c]pyrrol-2-yl]methanone], with 4.8 nM. Take `N#Cc1cc(C(F)(F)F)ccc1O[C@H]1C[C@@H]2CN(C(=O)N3CC4(CC(n5cnc(C6CC6)n5)C4)C3)C[C@@H]2C1` [Example 114, 2-[[rac-(3aS,6aR)-2-[6-(3-cyclopropyl-1,2,4-triazol-1-yl)-2-azaspiro[3.3]heptane-2-carbonyl]-3,3a,4,5,6,6a-hexahydro-1H-cyclopenta[c]pyrrol-5-yl]oxy]-5-(trifluoromethyl) benzonitrile]: the IC50 worked out at 10.4 nM. In turn, `O=C(N1C[C@H]2C[C@H](Oc3ccc(C(F)(F)F)c(Cl)c3)C[C@H]2C1)N1CC2(CC(n3cnc(C4CC4)n3)C2)C1` [Example 115, [6-(3-cyclopropyl-1,2,4-triazol-1-yl)-2-azaspiro[3.3]heptan-2-yl]-[rac-(3aS,6aR)-5-[3-chloro-4-(trifluoromethyl)phenoxy]-3,3a,4,5,6,6a-hexahydro-1H-cyclopenta[c]pyrrol-2-yl]methanone] returned an IC50 of 2.4 nM. As for `COc1cc(C(F)(F)F)ccc1O[C@H]1C[C@@H]2CN(C(=O)N3CC4(CC(n5cnc(C6CC6)n5)C4)C3)C[C@@H]2C1` [Example 116, [6-(3-cyclopropyl-1,2,4-triazol-1-yl)-2-azaspiro[3.3]heptan-2-yl]-[rac-(3aS,6aR)-5-[2-methoxy-4-(trifluoromethyl)phenoxy]-3,3a,4,5,6,6a-hexahydro-1H-cyclopenta[c]pyrrol-2-yl]methanone], the IC50 is 2.7 nM. Then `O=C(N1C[C@H]2C[C@H](Oc3ccc(C(F)(F)F)c(F)c3)C[C@H]2C1)N1CC2(CC(n3cnc(C4CC4)n3)C2)C1` [Example 117, [6-(3-cyclopropyl-1,2,4-triazol-1-yl)-2-azaspiro[3.3]heptan-2-yl]-[rac-(3aS,6aR)-5-[3-fluoro-4-(trifluoromethyl)phenoxy]-3,3a,4,5,6,6a-hexahydro-1H-cyclopenta[c]pyrrol-2-yl]methanone], with 3.5 nM; and `N#Cc1cc(O[C@H]2C[C@@H]3CN(C(=O)N4CC5(CC(n6cnc(C7CC7)n6)C5)C4)C[C@@H]3C2)ccc1C(F)(F)F` [Example 118, 5-[rac-(3aS,6aR)-2-[6-(3-cyclopropyl-1,2,4-triazol-1-yl)-2-azaspiro[3.3]heptane-2-carbonyl]-3,3a,4,5,6,6a-hexahydro-1H-cyclopenta[c]pyrrol-5-yl]oxy]-2-(trifluoromethyl) benzonitrile], with 4.7 nM; and `O=C(N1C[C@H]2C[C@H](Oc3ccc(F)c(F)c3)C[C@H]2C1)N1CC2(CC(n3cnc(C4CC4)n3)C2)C1` [Example 119, [6-(3-cyclopropyl-1,2,4-triazol-1-yl)-2-azaspiro[3.3]heptan-2-yl]-[rac-(3aS,6aR)-5-(3,4-difluorophenoxy)-3,3a,4,5,6,6a-hexahydro-1H-cyclopenta[c]pyrrol-2-yl]methanone], with 7.4 nM.

On to `O=C(N1C[C@H]2C[C@H](Oc3ccc(F)c(C(F)(F)F)c3)C[C@H]2C1)N1CC2(CC(n3cnc(C4CC4)n3)C2)C1` [Example 120, [6-(3-cyclopropyl-1,2,4-triazol-1-yl)-2-azaspiro[3.3]heptan-2-yl]-[rac-(3aS,6aR)-5-[4-fluoro-3-(trifluoromethyl)phenoxy]-3,3a,4,5,6,6a-hexahydro-1H-cyclopenta[c]pyrrol-2-yl]methanone], for which the IC50 stood at 1 nM. The value for `O=C(N1C[C@H]2C[C@H](Oc3ccc(F)cc3F)C[C@H]2C1)N1CC2(CC(n3cnc(C4CC4)n3)C2)C1` [Example 121, [6-(3-cyclopropyl-1,2,4-triazol-1-yl)-2-azaspiro[3.3]heptan-2-yl]-[rac-(3aS,6aR)-5-(2,4-difluorophenoxy)-3,3a,4,5,6,6a-hexahydro-1H-cyclopenta[c]pyrrol-2-yl]methanone] was 5.4 nM; that for `COc1cc(F)ccc1O[C@H]1C[C@@H]2CN(C(=O)N3CC4(CC(n5cnc(C6CC6)n5)C4)C3)C[C@@H]2C1` [Example 122, [6-(3-cyclopropyl-1,2,4-triazol-1-yl)-2-azaspiro[3.3]heptan-2-yl]-[rac-(3aS,6aR)-5-(4-fluoro-2-methoxy-phenoxy)-3,3a,4,5,6,6a-hexahydro-1H-cyclopenta[c]pyrrol-2-yl]methanone] was 7.3 nM. With `CS(=O)(=O)c1cc(F)ccc1O[C@H]1C[C@@H]2CN(C(=O)N3CC4(CC(n5cnc(C6CC6)n5)C4)C3)C[C@@H]2C1` [Example 123, [6-(3-cyclopropyl-1,2,4-triazol-1-yl)-2-azaspiro[3.3]heptan-2-yl]-[rac-(3aS,6aR)-5-(4-fluoro-2-methylsulfonyl-phenoxy)-3,3a,4,5,6,6a-hexahydro-1H-cyclopenta[c]pyrrol-2-yl]methanone], it took 41.9 nM to reach half-maximal inhibition (IC50). Then `O=C(N1C[C@H]2C[C@H](Oc3c(F)cc(F)cc3F)C[C@H]2C1)N1CC2(CC(n3cnc(C4CC4)n3)C2)C1` [Example 124, [6-(3-cyclopropyl-1,2,4-triazol-1-yl)-2-azaspiro[3.3]heptan-2-yl]-[rac-(3aS,6aR)-5-(2,4,6-trifluorophenoxy)-3,3a,4,5,6,6a-hexahydro-1H-cyclopenta[c]pyrrol-2-yl]methanone], with 4 nM; and `Cc1cc(O[C@H]2C[C@@H]3CN(C(=O)N4CC5(CC(n6cnc(C7CC7)n6)C5)C4)C[C@@H]3C2)ccc1F` [Example 125, [6-(3-cyclopropyl-1,2,4-triazol-1-yl)-2-azaspiro[3.3]heptan-2-yl]-[rac-(3aS,6aR)-5-(4-fluoro-3-methyl-phenoxy)-3,3a,4,5,6,6a-hexahydro-1H-cyclopenta[c]pyrrol-2-yl]methanone], with 4.6 nM. Then `N#Cc1cc(O[C@H]2C[C@@H]3CN(C(=O)N4CC5(CC(n6cnc(C7CC7)n6)C5)C4)C[C@@H]3C2)ccc1F` [Example 127, 2-fluoro-5-[[rac-(3aS,6aR)-2-[6-(3-cyclopropyl-1,2,4-triazol-1-yl)-2-azaspiro[3.3]heptane-2-carbonyl]-3,3a,4,5,6,6a-hexahydro-1H-cyclopenta[c]pyrrol-5-yl]oxy]benzonitrile], with 14.4 nM; and `Cc1cc(F)c(F)cc1O[C@H]1C[C@@H]2CN(C(=O)N3CC4(CC(n5cnc(C6CC6)n5)C4)C3)C[C@@H]2C1` [Example 128, [6-(3-cyclopropyl-1,2,4-triazol-1-yl)-2-azaspiro[3.3]heptan-2-yl]-[rac-(3aS,6aR)-5-(4,5-difluoro-2-methyl-phenoxy)-3,3a,4,5,6,6a-hexahydro-1H-cyclopenta[c]pyrrol-2-yl]methanone], with 1.8 nM; and `N#Cc1cc(F)ccc1O[C@H]1C[C@@H]2CN(C(=O)N3CC4(CC(n5cnc(C6CC6)n5)C4)C3)C[C@@H]2C1` [Example 129, 5-fluoro-2-[[rac-(3aS,6aR)-2-[6-(3-cyclopropyl-1,2,4-triazol-1-yl)-2-azaspiro[3.3]heptane-2-carbonyl]-3,3a,4,5,6,6a-hexahydro-1H-cyclopenta[c]pyrrol-5-yl]oxy]benzonitrile], with 72.2 nM.
